Assay results taken from ChEMBL document CHEMBL1147567, “Neuroprotective effects of flavones on hydrogen peroxide-induced apoptosis in SH-SY5Y neuroblostoma cells” (Bioorg Med Chem Lett, 2004).

Columns and labels:
SH-SY5Y [1] = experiment: Percent increase against SH-SY5Y human neuroblastoma cell viability induced by hydrogen peroxide at 10 uM concentration; format: functional
SH-SY5Y [2] = experiment: Percent increase against SH-SY5Y human neuroblastoma cell viability induced by hydrogen peroxide at 2 uM concentration; format: functional
SH-SY5Y [3] = experiment: Percent increase against SH-SY5Y human neuroblastoma cell viability induced by hydrogen peroxide at 50 uM concentration; format: functional
[4] = Free radical scavenging activity of DPPH was determined

Compound: O=c1cc(-c2ccc(O)c(O)c2)oc2cc(O)cc(O)c12 [LUTEOLIN]
- Increase (SH-SY5Y [1]): 84%
- Increase (SH-SY5Y [2]): 76.4%
- Increase (SH-SY5Y [3]): 77.5%
- IC50 [4]: 10.4 µM

Compound: COc1c(O)cc(O)c2c(=O)cc(-c3ccccc3)oc12 [WOGONIN]
- IC50 [4]: > 100 µM

Compound: O=c1cc(-c2ccc(O)cc2)oc2cc(O)cc(O)c12 [APIGENIN]
- Increase (SH-SY5Y [1]): 52.4%
- Increase (SH-SY5Y [2]): 24.6%
- Increase (SH-SY5Y [3]): 63.7%
- IC50 [4]: > 100 µM

Compound: O=C1O[C@H]([C@@H](O)CO)C(O)=C1O [ASCORBIC ACID]
- IC50 [4]: 26.5 µM

Compound: O=c1cc(-c2ccccc2)oc2cc(O)cc(O)c12 [CHRYSIN]
- IC50 [4]: > 100 µM
